Measured values from patent US7271165B2, “Rifamycin analogs and uses thereof” (priority 2003, dated 2007).
Converted amounts (≈) assume the structure as drawn.

What was measured:
H. flu = format: cell-based, H. influenza; conditions: H. flu
S. pneumo. = assay: MIC assay, S. pneumo.; format: cell-based, Streptococcus pneumoniae
E. faecalis = assay: MIC assay, E. faecalis; format: cell-based, Enterococcus faecalis
S. aureus = assay: MIC assay, S. aureus; format: cell-based, Staphylococcus aureus
E coli = assay: MIC assay, E coli; format: cell-based

Compound	MIC (μg/mL) H. flu (H. flu)	MIC (μg/mL) S. pneumo. (S. pneumo.)	MIC (μg/mL) E. faecalis (E. faecalis)	MIC (μg/mL) S. aureus (S. aureus)	MIC (μg/mL) E coli (E coli)
CO[C@H]1/C=C/O[C@@]2(C)Oc3c(C)c(O)c4c(=O)c(c5oc6cc(N7CCC(N8CCOCC8)CC7)cc(O)c6nc-5c4c3C2=O)NC(=O)/C(C)=C\C=C\[C@H](C)[C@H](O)[C@@H](C)[C@@H](O)[C@@H](C)[C@H](OC(C)=O)[C@@H]1C [Compound 9, 3′-hydroxy-5′-(4-morpholinyl-1-piperidinyl)benzoxazinorifamycin]	2 µg/mL (≈ 2.06 µM)	0.001 µg/mL (≈ 0.00103 µM)	2 µg/mL (≈ 2.06 µM)	0.015 µg/mL (≈ 0.0155 µM)	8 µg/mL (≈ 8.26 µM)
CO[C@H]1/C=C/O[C@@]2(C)Oc3c(C)c(O)c4c(=O)c(c5oc6cc(N7CC8CCC(C7)N8)cc(O)c6nc-5c4c3C2=O)NC(=O)/C(C)=C\C=C\[C@H](C)[C@H](O)[C@@H](C)[C@@H](O)[C@@H](C)[C@H](OC(C)=O)[C@@H]1C [Compound 10, 3′-hydroxy-5′-(3,8-diazabicyclo[3.2.1]octan-3-yl)benzoxazinorifamycin]	2 µg/mL (≈ 2.2 µM)	0.00012 µg/mL (≈ 0.000132 µM)	1 µg/mL (≈ 1.1 µM)	0.008 µg/mL (≈ 0.00878 µM)	>8 µg/mL
CO[C@H]1/C=C/O[C@@]2(C)Oc3c(C)c(O)c4c(=O)c(c5oc6cc(N7CCC(N8CCOCC8)CC7)cc(O)c6nc-5c4c3C2=O)NC(=O)/C(C)=C\C=C\[C@H](C)[C@H](O)[C@@H](C)[C@@H](O)[C@@H](C)[C@H](O)[C@@H]1C [Compound 11, 25-O-deacetyl-3′-hydroxy-5′-(4-morpholinyl-1-piperidinyl)benzoxazinorifamycin]	1 µg/mL (≈ 1.08 µM)	0.00012 µg/mL (≈ 0.000129 µM)	0.25 µg/mL (≈ 0.27 µM)	0.004 µg/mL (≈ 0.00431 µM)	4 µg/mL (≈ 4.31 µM)
CO[C@H]1/C=C/O[C@@]2(C)Oc3c(C)c(O)c4c(=O)c(c5oc6cc(N7C[C@H]8CCCN[C@H]8C7)cc(O)c6nc-5c4c3C2=O)NC(=O)/C(C)=C\C=C\[C@H](C)[C@H](O)[C@@H](C)[C@@H](O)[C@@H](C)[C@H](OC(C)=O)[C@@H]1C [Compound 12, 3′-hydroxy-5′-[(4aR,7aR)-octahydro-6H-pyrrolo[3,4-b]pyridin-6-yl]benzoxazinorifamycin]	0.25 µg/mL (≈ 0.27 µM)	0.00025 µg/mL (≈ 0.00027 µM)	0.12 µg/mL (≈ 0.13 µM)	0.004 µg/mL (≈ 0.00432 µM)	8 µg/mL (≈ 8.65 µM)
CO[C@H]1/C=C/O[C@@]2(C)Oc3c(C)c(O)c4c(=O)c(c5oc6cc(N7CCC(NC(=O)OCC(C)C)CC7)cc(O)c6nc-5c4c3C2=O)NC(=O)/C(C)=C\C=C\[C@H](C)[C@H](O)[C@@H](C)[C@@H](O)[C@@H](C)[C@H](OC(C)=O)[C@@H]1C [Compound 13]	2 µg/mL (≈ 2 µM)	0.00012 µg/mL (≈ 0.00012 µM)	0.5 µg/mL (≈ 0.5 µM)	0.008 µg/mL (≈ 0.00801 µM)	4 µg/mL (≈ 4 µM)
CO[C@H]1/C=C/O[C@@]2(C)Oc3c(C)c(O)c4c(=O)c(c5oc6cc(N7C[C@H]8CCCN[C@H]8C7)cc(O)c6nc-5c4c3C2=O)NC(=O)/C(C)=C\C=C\[C@H](C)[C@H](O)[C@@H](C)[C@@H](O)[C@@H](C)[C@H](O)[C@@H]1C [Compound 15, 25-O-deacetyl-3′-hydroxy-5′-[(4aR,7aR)-octahydro-6H-pyrrolo[3,4-b]pyridin-6-yl]benzoxazinorifamycin]	1 µg/mL (≈ 1.13 µM)	0.002 µg/mL (≈ 0.00226 µM)	0.25 µg/mL (≈ 0.283 µM)	0.03 µg/mL (≈ 0.034 µM)	>8 µg/mL
CO[C@H]1/C=C/O[C@@]2(C)Oc3c(C)c(O)c4c(=O)c(c5oc6cc(N7CC8CCC(C7)N8)cc(O)c6nc-5c4c3C2=O)NC(=O)/C(C)=C\C=C\[C@H](C)[C@H](O)[C@@H](C)[C@@H](O)[C@@H](C)[C@H](O)[C@@H]1C [Compound 16, 25-O-deacetyl-3′-hydroxy-5′-(3,8-diazabicyclo[3.2.1]octan-3-yl)benzoxazinorifamycin]	0.25 µg/mL (≈ 0.288 µM)	0.001 µg/mL (≈ 0.00115 µM)	0.12 µg/mL (≈ 0.138 µM)	0.015 µg/mL (≈ 0.0173 µM)	4 µg/mL (≈ 4.6 µM)
CO[C@H]1/C=C/O[C@@]2(C)Oc3c(C)c(O)c4c(=O)c(c5oc6cc(N7CCC(N(C)C)CC7)cc(O)c6nc-5c4c3C2=O)NC(=O)/C(C)=C\C=C\[C@H](C)[C@H](O)[C@@H](C)[C@@H](O)[C@@H](C)[C@H](OC(C)=O)[C@@H]1C [Compound 17, 3′-hydroxy-5′-(4-N,N-dimethylamino-1-piperidinyl)benzoxazinorifamycin]	1 µg/mL (≈ 1.08 µM)	0.00012 µg/mL (≈ 0.000129 µM)	1 µg/mL (≈ 1.08 µM)	0.008 µg/mL (≈ 0.00863 µM)	8 µg/mL (≈ 8.63 µM)
COC1C=COC2(C)Oc3c(C)c(O)c4c(=O)c(c5oc6cc(N7CC(C)CC(C)C7)cc(O)c6nc-5c4c3C2=O)NC(=O)C(C)=CC=CC(C)C(O)C(C)C(O)C(C)C(O)C1C (centres unmarked) [Compound 113]	0.12 µg/mL (≈ 0.138 µM)	0.002 µg/mL (≈ 0.0023 µM)	1 µg/mL (≈ 1.15 µM)	0.008 µg/mL (≈ 0.0092 µM)	–
CCc1cc(C)cc2nc3c4c5c6c(C)c(O)c4c(=O)c(c-3oc12)NC(=O)C(C)=CC=CC(C)C(O)C(C)C(O)C(C)C(O)C(C)C(OC)C=COC(C)(O6)C5=O (centres unmarked) [Compound 130]	–	0.25 µg/mL (≈ 0.319 µM)	1 µg/mL (≈ 1.27 µM)	–	>8 µg/mL
